Measured values published in ChEMBL document CHEMBL1144312, “Synthesis of mono-glucose-branched cyclodextrins with a high inclusion ability for doxorubicin and their efficient glycosylation using Mucor hiemalis endo-beta-N-acetylglucosaminidase” (Bioorg Med Chem Lett, 2005).

Tests used:
[1] = tested on: doxorubicin (immobilized ligand, no protein target); assay: Association constant for cyclodextrin binding to immobilized doxorubicin by SPR biosensor
[2] = tested on: doxorubicin (immobilized ligand, no protein target); assay: Association rate constant for cyclodextrin binding to immobilized doxorubicin by SPR biosensor
[3] = tested on: doxorubicin (immobilized ligand, no protein target); assay: Dissociation rate constant for cyclodextrin binding to immobilized doxorubicin by SPR biosensor

**Q.** For `OCC1OC2OC3C(CO)OC(OC4C(CO)OC(OC5C(COCCCOc6ccc(O[C@@H]7O[C@@H](CO)[C@@H](O)[C@H](O)[C@@H]7O)cc6)OC(OC6C(CO)OC(OC7C(CO)OC(OC8C(CO)OC(OC1C(O)C2O)C(O)C8O)C(O)C7O)C(O)C6O)C(O)C5O)C(O)C4O)C(O)C3O` (stereo partly drawn), which Ka [1] is on record?
**A.** The Ka was 220 10E3·1/M.

**Q.** And the K ass [2]?
**A.** Its K ass is 4.6 10E3·1/M·1/s.

**Q.** And the K diss [3]?
**A.** Its K diss is 2.1 10E-2·1/s.
